Measurements from PMC8400955 (Pharmaceuticals, 2021).

Legend:
[1] = Single-dose PK and bioavailability in dogs; assay type: in vivo; conditions: beagle, dog, plasma; for bioavailability: PO 6 mg/kg/day vs IV 2 mg/kg/day; for AUC(0-t) / Cmax / Tmax: single dose
Protocol: […] […] All groups had one male and one female animal. Plasma samples were collected at various timepoints, through to 24 h post-dose, and analyzed for ZB716.
(§1) Four-to-six-week-old Sprague Dawley rats (Crl: CD (SD)) (SPF/VAF) were purchased from Beijing Vital River Laboratory Animal Technology, Co. Ltd.). Six-month-old beagle dogs were purchased from Beijing Marshall Biotechnology Co. Ltd. Animals were quarantined/acclimated for 2–6 weeks prior to dose initiation. Both Sprague Dawley rats and beagle dogs were given oral administration of ZB716 (20% PG, 5% Solutol, and 75% of 40% HP-β-CD in water) at different dose levels. After treatment with the test articles, whole blood was collected from each study animal by puncture of the tail vein (0.4 mL of whole blood from rats) and/or the peripheral vein (0.6 mL of whole blood from dogs) into tubes containing K2EDTA at each timepoint: pre-dose, and 0.5, 1, 2, 4, 8, and 24 h post-dose. The plasma samples were divided into 2 aliquots (approximately equal in volume) and stored frozen at −75 ± 15 °C within 2 h of the collection until analysis at Pharmaron, China.
(§2) The stock solution of ZB716 (5.0 mg/mL) and ZB716-d6 (1 mg/mL) in ACN:DI Water = 1:1 was prepared and stored at −20 ± 5 °C. The desired serial concentrations of working reference analyte solutions were achieved by diluting a stock analyte solution with 50% acetonitrile (0.1% formic acid) in water solution. The bioanalytical LC–MS/MS method was validated for quantitative determination of ZB716 in Sprague Dawley rat plasma and beagle dog plasma, with acceptable selectivity, sensitivity, calibration curve, precision, and accuracy. This method is applicable for the determination of ZB716 in Sprague Dawley rat plasma and beagle dog plasma, with a lower limit of quantification of 20.0 ng/mL, and an upper limit of quantification of 10,000 ng/mL.
(§3) Five microliters of diluted supernatant was injected into the LC–MS/MS system (Shimadzu LC30AD HPLC system with a SynergiTM 4 μm Fusion-RP 80 Å (50 × 2 mm) column using gradient elution and a Triple Quad 5500 mass spectrometer) for quantitative analysis. The mobile phases used were 0.1% formic acid in deionized water and 0.1% formic acid in acetonitrile. The pharmacokinetic parameters T1/2 (the biological half-life), Cmax (maximal concentration), Tmax (time at which Cmax is observed), and AUC (area under the plasma concentration–time curve) were calculated from the plasma concentration versus time data using WinNonlin (Phoenix^TM, version 8.1, Mountain View, CA, USA). All PK studies were conducted by Pharmaron in Beijing, China.

[2] = 7-day repeated-dose TK in dogs; assay type: in vivo; conditions: beagle, dog, plasma, po
Protocol: The TK of ZB716 was investigated following once-daily administration via oral gavage for 7 consecutive days. Beagle dogs (n = 1/sex) were orally administered ZB716 at dose levels of 100 and 200 mg/kg/day.
The TK of ZB716 was investigated following once-daily administration via oral gavage for 7 consecutive days. The Cmax and AUClast values of ZB716 increased with dose in a greater than dose-proportional manner. However, the exposure in the female given 100 mg/kg/day was higher than that in the female given 200 mg/kg/day on days 1 and 7 (Figure 3). During the study, females had higher exposure at 100 mg/kg/day, and males had higher exposure at 200 mg/kg/day.
as §1, §2, §3

[3] = tested on: CYP1A2; assay: CYP induction (enzyme activity) in cryopreserved human hepatocytes, CYP1A2; conditions: for fold induction at 72 h, 0.15 µM / fold induction at 72 h, 1.5 µM / fold induction at 72 h, 5 µM / fold induction at 72 h, 15 µM: human, plated cryopreserved human hepatocytes
Protocol: The UPLC–MS/MS (SHIMADZU, LC-30AD) equipped with waters Xselect®HSS T3 2.5 μm (2.1 × 50 mm) was used to detect the marker metabolites in the enzyme activity assay. The fold-induction enzyme activity was determined using the ratio calculation (the calculation details are available in the Supplementary Materials).
CYP activity was expressed as pmol/min/million cells where pmol was defined as the amount of metabolite formed during the reaction. […] The fold-induction enzyme activity was determined by the ratio:
Fold of induction = CYP activity(induced) / CYP activity(vehicle)
% of positive control = (𝑪𝒀𝑷 𝒂𝒄𝒕𝒊𝒗𝒊𝒕𝒚(𝒊𝒏𝒅𝒖𝒄𝒆𝒅)ି 𝑪𝒀𝑷 𝒂𝒄𝒕𝒊𝒗𝒊𝒕𝒚(𝑫𝑴𝑺𝑶))(𝑪𝒀𝑷 𝒂𝒄𝒕𝒊𝒗𝒊𝒕𝒚(𝒑𝒐𝒔𝒊𝒕𝒊𝒗𝒆 𝒄𝒐𝒏𝒕𝒓𝒐𝒍)ି 𝑪𝒀𝑷 𝒂𝒄𝒕𝒊𝒗𝒊𝒕𝒚(𝑫𝑴𝑺𝑶))х 𝟏𝟎𝟎 Based on the enzyme activity, a minimum of 2-fold increase of a response compared to vehicle control and ≥ 20% of the positive control was considered as the cutoff for a positive signal in in vitro induction

[4] = female, 100 mg/kg/day, day 1, PO 100 mg/kg/day, F
[5] = female, 100 mg/kg/day, day 7, PO 100 mg/kg/day, F
[6] = female, 200 mg/kg/day, day 1, PO 200 mg/kg/day, F
[7] = female, 200 mg/kg/day, day 7, PO 200 mg/kg/day, F
[8] = male, 100 mg/kg/day, day 1, PO 100 mg/kg/day, M
[9] = male, 100 mg/kg/day, day 7, PO 100 mg/kg/day, M
[10] = male, 200 mg/kg/day, day 1, PO 200 mg/kg/day, M
[11] = male, 200 mg/kg/day, day 7, PO 200 mg/kg/day, M

C[C@]12CC[C@@H]3c4ccc(B(O)O)cc4C[C@@H](CCCCCCCCC[S+]([O-])CCCC(F)(F)C(F)(F)F)[C@H]3[C@@H]1CC[C@@H]2O (stereo partly drawn) [ZB716, fulvestrant-3-boronic acid]
bioavailability ([1]; female, F): 6.74% | AUC(0-t) ([1]; female, IV 2 mg/kg/day, F): 4310 ng·h/mL | Cmax ([1]; female, IV 2 mg/kg/day, F): 2710 ng/mL | Tmax ([1]; female, IV 2 mg/kg/day, F): 0.0833 h | AUC(0-t) ([1]; female, PO 6 mg/kg/day, F): 872 ng·h/mL | Cmax ([1]; female, PO 6 mg/kg/day, F): 213 ng/mL | Tmax ([1]; female, PO 6 mg/kg/day, F): 0.5 h | AUC(0-t) ([1]; female, PO 30 mg/kg/day, F): 3460 ng·h/mL | Cmax ([1]; female, PO 30 mg/kg/day, F): 964 ng/mL | Tmax ([1]; female, PO 30 mg/kg/day, F): 1 h | AUC(0-t) ([1]; female, PO 100 mg/kg/day, F): 5840 ng·h/mL | Cmax ([1]; female, PO 100 mg/kg/day, F): 957 ng/mL | Tmax ([1]; female, PO 100 mg/kg/day, F): 0.5 h | bioavailability ([1]; male, M): 6.18% | AUC(0-t) ([1]; male, IV 2 mg/kg/day, M): 3030 ng·h/mL | Cmax ([1]; male, IV 2 mg/kg/day, M): 2160 ng/mL | Tmax ([1]; male, IV 2 mg/kg/day, M): 0.0833 h | AUC(0-t) ([1]; male, PO 6 mg/kg/day, M): 563 ng·h/mL | Cmax ([1]; male, PO 6 mg/kg/day, M): 157 ng/mL | Tmax ([1]; male, PO 6 mg/kg/day, M): 0.5 h | AUC(0-t) ([1]; male, PO 30 mg/kg/day, M): 5520 ng·h/mL | Cmax ([1]; male, PO 30 mg/kg/day, M): 988 ng/mL | Tmax ([1]; male, PO 30 mg/kg/day, M): 4 h | AUC(0-t) ([1]; male, PO 100 mg/kg/day, M): 7500 ng·h/mL | Cmax ([1]; male, PO 100 mg/kg/day, M): 1140 ng/mL | Tmax ([1]; male, PO 100 mg/kg/day, M): 2 h | Tmax at 7 days ([2]; both sexes, 200 mg/kg/day, 7-day repeat oral administration, 100 and 200 mg/kg/day, mostly): 0.5 to 2 h | AUC(0-t) [2, 4]: 55600 ng·h/mL | Cmax [2, 4]: 7210 ng/mL | Tmax [2, 4]: 2 h | AUC(0-t) [2, 5]: 81100 ng·h/mL | Cmax [2, 5]: 12300 ng/mL | Tmax [2, 5]: 4 h | AUC(0-t) [2, 6]: 9780 ng·h/mL | Cmax [2, 6]: 1740 ng/mL | Tmax [2, 6]: 1 h | AUC(0-t) [2, 7]: 46700 ng·h/mL | Cmax [2, 7]: 8420 ng/mL | Tmax [2, 7]: 2 h | AUC(0-t) [2, 8]: 5070 ng·h/mL | Cmax [2, 8]: 1350 ng/mL | Tmax [2, 8]: 1 h | AUC(0-t) [2, 9]: 17800 ng·h/mL | Cmax [2, 9]: 3430 ng/mL | Tmax [2, 9]: 1 h | AUC(0-t) [2, 10]: 52200 ng·h/mL | Cmax [2, 10]: 8430 ng/mL | Tmax [2, 10]: 2 h | AUC(0-t) [2, 11]: 103000 ng·h/mL | Cmax [2, 11]: 18300 ng/mL | Tmax [2, 11]: 2 h | Percent of Control ([3]; donor one, 0.15 µM): 2.92% | Percent of Control ([3]; donor one, 1.5 µM): 18.4% | Percent of Control ([3]; donor one, 5 µM): 73.6% | Percent of Control ([3]; donor one, 15 µM): 80.0% | Percent of Control ([3]; donor three, 0.15 µM): 3.78% | Percent of Control ([3]; donor three, 1.5 µM): 45.0% | Percent of Control ([3]; donor three, 5 µM): 41.6% | Percent of Control ([3]; donor three, 15 µM): 20.3% | Percent of Control ([3]; donor two, 0.15 µM): 0.777% | Percent of Control ([3]; donor two, 1.5 µM): 8.38% | Percent of Control ([3]; donor two, 5 µM): 17.4% | Percent of Control ([3]; donor two, 15 µM): 12.6% | fold induction at 72 h, 0.15 µM ([3]; donor one, 0.15 µM): 1.24 ± 0.1 | fold induction at 72 h, 1.5 µM ([3]; donor one, 1.5 µM): 2.52 ± 0.17 | fold induction at 72 h, 5 µM ([3]; donor one, 5 µM): 7.09 ± 0.78 | fold induction at 72 h, 15 µM ([3]; donor one, 15 µM): 7.62 ± 1.63 | fold induction at 72 h, 0.15 µM ([3]; donor three, 0.15 µM): 1.2 ± 0.22 | fold induction at 72 h, 1.5 µM ([3]; donor three, 1.5 µM): 3.42 ± 0.2 | fold induction at 72 h, 5 µM ([3]; donor three, 5 µM): 3.24 ± 0.53 | fold induction at 72 h, 15 µM ([3]; donor three, 15 µM): 2.09 ± 0.49 | fold induction at 72 h, 0.15 µM ([3]; donor two, 0.15 µM): 1.11 ± 0.05 | fold induction at 72 h, 1.5 µM ([3]; donor two, 1.5 µM): 2.17 ± 0.03 | fold induction at 72 h, 5 µM ([3]; donor two, 5 µM): 3.44 ± 0.18 | fold induction at 72 h, 15 µM ([3]; donor two, 15 µM): 2.77 ± 0.34
